Measured values from PubChem BioAssay (NCI).
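Five concentrations, 48 hours, 96-well plates. Abbreviation: GI50, concentration required for 50% inhibition of growth. Definition used: TGI = concentration required for complete inhibition of growth.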

Assays:
Test in all cases: NCI anticancer screen, dose series, 48 h
[1] = test system: 786-0 renal
[2] = test system: A498 renal
[3] = test system: A549 NSCLC
[4] = test system: ACHN renal
[5] = test system: BT-549 breast
[6] = test system: CAKI-1 renal
[7] = test system: CCRF-CEM leukemia
[8] = test system: COLO 205 colon
[9] = test system: DU-145 prostate
[10] = test system: HCC-2998 colon
[11] = test system: HCT-116 colon
[12] = test system: HCT-15 colon
[13] = test system: HL-60(TB) leukemia
[14] = test system: HOP-62 NSCLC
[15] = test system: HOP-92 NSCLC
[16] = test system: HS 578T breast
[17] = test system: HT29 colon
[18] = test system: IGROV1 ovarian
[19] = test system: K-562 leukemia
[20] = test system: KM12 colon
[21] = test system: LOX IMVI melanoma
[22] = test system: M14 melanoma
[23] = test system: MALME-3M melanoma
[24] = test system: MCF7 breast
[25] = test system: MDA-MB-231 breast
[26] = test system: MDA-MB-435
[27] = test system: MOLT-4 leukemia
[28] = test system: NCI-H226 lung
[29] = test system: NCI-H23 lung
[30] = test system: NCI-H460 lung
[31] = test system: NCI-H522 lung
[32] = test system: NCI/ADR-RES ovarian
[33] = test system: OVCAR-3 ovarian
[34] = test system: OVCAR-4 ovarian
[35] = test system: OVCAR-5 ovarian
[36] = test system: OVCAR-8 ovarian
[37] = test system: PC-3 prostate
[38] = test system: RPMI-8226 leukemia
[39] = test system: SF-268 CNS
[40] = test system: SF-295 CNS
[41] = test system: SF-539 CNS
[42] = test system: SK-MEL-2 melanoma
[43] = test system: SK-MEL-28 melanoma
[44] = test system: SK-MEL-5 melanoma
[45] = test system: SK-OV-3 ovarian
[46] = test system: SN12C renal
[47] = test system: SNB-19 CNS
[48] = test system: SNB-75 CNS
[49] = test system: SR leukemia
[50] = test system: SW-620 colon
[51] = test system: T-47D breast
[52] = test system: TK-10 renal
[53] = test system: UACC-257 melanoma
[54] = test system: UACC-62 melanoma
[55] = test system: UO-31 renal

CCCCCCn1c(=N)n(CC(O)COc2cccc(C)c2)c2ccccc21 (stereo not given)
GI50 [1]: 1.72 µM | TGI [1]: 3.24 µM | GI50 [2]: 1.8 µM | TGI [2]: 7.35 µM | GI50 [3]: 3.47 µM | TGI [3]: 13.3 µM | GI50 [4]: 2.02 µM | TGI [4]: 4.25 µM | GI50 [5]: 1.8 µM | TGI [5]: 3.51 µM | GI50 [6]: 2.89 µM | TGI [6]: 10.6 µM | GI50 [7]: 2.36 µM | TGI [7]: 7.14 µM | GI50 [8]: 1.9 µM | TGI [8]: 3.43 µM | GI50 [9]: 3.67 µM | TGI [9]: 12.1 µM | GI50 [10]: 2.04 µM | TGI [10]: 3.65 µM | GI50 [11]: 1.36 µM | TGI [11]: 2.89 µM | GI50 [12]: 2.12 µM | TGI [12]: 5.34 µM | GI50 [13]: 1.88 µM | TGI [13]: 3.79 µM | GI50 [14]: 2.14 µM | TGI [14]: 3.88 µM | GI50 [15]: 2.2 µM | TGI [15]: 8.02 µM | GI50 [16]: 2.63 µM | TGI [16]: 8.27 µM | GI50 [17]: 1.73 µM | TGI [17]: 3.59 µM | GI50 [18]: 2.78 µM | TGI [18]: 10.2 µM | GI50 [19]: 2.07 µM | TGI [19]: 5.28 µM | GI50 [20]: 2.04 µM | TGI [20]: 4.17 µM | GI50 [21]: 1.82 µM | TGI [21]: 3.44 µM | GI50 [22]: 1.83 µM | TGI [22]: 3.42 µM | GI50 [23]: 1.92 µM | TGI [23]: 3.66 µM | GI50 [24]: 1.76 µM | TGI [24]: 3.55 µM | GI50 [25]: 2.2 µM | TGI [25]: 6.44 µM | GI50 [26]: 1.83 µM | TGI [26]: 3.56 µM | GI50 [27]: 2.39 µM | TGI [27]: 6.16 µM | GI50 [28]: 3.14 µM | TGI [28]: 12.5 µM | GI50 [29]: 2.89 µM | TGI [29]: 11.5 µM | GI50 [30]: 1.96 µM | TGI [30]: 3.88 µM | GI50 [31]: 1.78 µM | TGI [31]: 3.82 µM | GI50 [32]: 2.82 µM | TGI [32]: 8.89 µM | GI50 [33]: 2.13 µM | TGI [33]: 4.98 µM | GI50 [34]: 2.15 µM | TGI [34]: 6.27 µM | GI50 [35]: 4.01 µM | TGI [35]: 15.1 µM | GI50 [36]: 2.21 µM | TGI [36]: 4.74 µM | GI50 [37]: 2.16 µM | TGI [37]: 5.23 µM | GI50 [38]: 1.98 µM | TGI [38]: 4.56 µM | GI50 [39]: 3.9 µM | TGI [39]: 13.9 µM | GI50 [40]: 1.78 µM | TGI [40]: 3.78 µM | GI50 [41]: 2.2 µM | TGI [41]: 4.43 µM | GI50 [42]: 1.91 µM | TGI [42]: 4.26 µM | GI50 [43]: 1.87 µM | TGI [43]: 3.51 µM | GI50 [44]: 1.77 µM | TGI [44]: 3.2 µM | GI50 [45]: 3.38 µM | TGI [45]: 9.32 µM | GI50 [46]: 3.21 µM | TGI [46]: 13.8 µM | GI50 [47]: 4.94 µM | TGI [47]: 20 µM | GI50 [48]: 2.54 µM | TGI [48]: 12.2 µM | GI50 [49]: 1.76 µM | TGI [49]: 5.84 µM | GI50 [50]: 1.82 µM | TGI [50]: 4.04 µM | GI50 [51]: 2.19 µM | TGI [51]: 4.86 µM | GI50 [52]: 3.71 µM | TGI [52]: 12.8 µM | GI50 [53]: 2 µM | TGI [53]: 4.35 µM | GI50 [54]: 1.92 µM | TGI [54]: 4.97 µM | GI50 [55]: 3.88 µM | TGI [55]: 15.4 µM
